Our source for the IC50 values is ChEMBL document CHEMBL2150927, “5-Amino-oxazepine and 5-Amino-thiazepine Compounds as β-Secretase Antagonists and Methods of Use: Patent Highlight” (ACS Med Chem Lett, 2012).

The target in assay [1] is T1, Beta-secretase 1 (Homo sapiens, UniProt P56817). In words: Inhibition of BACE1 expressed in HEK cells by cell-based assay. Set-up: species or system HEK293.
The target in assay [2] is T1, Beta-secretase 1. In words: Inhibition of BACE1 by FRET assay.

T1 sequence (P56817 whole entry): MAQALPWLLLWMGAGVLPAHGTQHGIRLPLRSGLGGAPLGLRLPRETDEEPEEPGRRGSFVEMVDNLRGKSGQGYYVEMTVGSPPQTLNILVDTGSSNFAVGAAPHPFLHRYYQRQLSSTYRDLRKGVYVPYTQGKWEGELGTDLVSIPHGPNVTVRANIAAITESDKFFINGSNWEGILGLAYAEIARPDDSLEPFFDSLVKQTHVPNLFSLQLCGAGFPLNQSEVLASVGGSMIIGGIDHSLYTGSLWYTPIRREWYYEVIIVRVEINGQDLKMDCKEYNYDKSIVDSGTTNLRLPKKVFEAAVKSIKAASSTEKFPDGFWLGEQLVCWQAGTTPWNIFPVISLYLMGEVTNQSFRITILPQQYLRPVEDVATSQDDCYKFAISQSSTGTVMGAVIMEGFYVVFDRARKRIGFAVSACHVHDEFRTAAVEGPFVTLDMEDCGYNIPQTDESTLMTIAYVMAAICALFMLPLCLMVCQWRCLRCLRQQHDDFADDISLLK

As to `NC1=N[C@@]2(COCC1)c1cc(-c3cccnc3F)ccc1Oc1cnc(-c3ccnc(F)c3)cc12`, the IC50 (commonly the midpoint of a concentration-inhibition curve) in assay [1] was found to be 1 nM.

Molecule `CC(C)(C)COc1cc(F)c2c(c1)[C@]1(COCCC(N)=N1)c1cc(-c3cccnc3F)ccc1O2` came in with an IC50 in assay [1] of 7 nM.

As for `NC1=N[C@@]2(CCOC1)c1cc(-c3cccnc3F)ccc1Oc1cnc(-c3ccc(F)c(F)c3)cc12`, the values for the IC50 in assay [2] and in assay [1] were 2 nM and 19 nM, respectively.

Consider `NC1=N[C@@]2(CCOC1)c1cc(-c3cccnc3F)ccc1Oc1cnc(C3CCC(F)(F)C3)cc12` (stereo partly specified), for which the IC50 was 3 nM in assay [2] and 4 nM in assay [1].
